Test results from US9487749B2 (priority 2009, dated 2016).
Read-outs that look alike come from different tables or passages of the source.

Key:
[1] = system: Streptococcus Pyogenes (Lancefield group A); details: 18 h
Streptococcus Pneumonia = details: Streptococcus pneumoniae, 7 h

C[S+](C)[O-] [DMSO, Dimethyl sulfoxide]
S. pyogenes viability (%) ([1]; 5 %): 96.66%
Viability of S. pyogenes (%) ([1]; 5 %): 96.66%
S. pyogenes viability (%) ([1]; 8 %): 9.96%
Viability of S. pyogenes (%) ([1]; 10 %): 14.50%
Viability of S. pyogenes (%) ([1]; 20 %): 5.14%
Viability of S. pneumonia (Streptococcus Pneumonia; 5 %): 75.45%
Viability of S. pneumonia (Streptococcus Pneumonia; 10 %): 40.18%
